Data as given in patent US7378403B2, “Akt inhibitors, pharmaceutical compositions, and uses thereof” (The United States of America as represented by the …, priority 2002, dated 2008).

Experiments:
Format in all cases: cell-based
[1] = test system: H1703, H157, and H1155 cells; experiment: Apoptosis in cell lines with high levels of Akt activity; conditions: FIG. 4
Experimental: (§1) Cell lines containing high or low endogenous levels of Akt activity were treated with SH compounds and the cell apoptosis was measured.

p38 = experiment: Immunoblotting with phospho-specific antibodies: p38 phosphorylation; conditions: H1703 (FIG. 3A) or H157 cells (FIG. 3B)
Experimental: (§2) The SH compounds were tested against Akt and other kinases that are either upstream of Akt (PDK-1), downstream of Akt (c-Raf, 4EBP-1, p70S6K, FKHR, GSK-3, and/or AFX), or downstream of Ras (ERK, p38). Immunoblotting was carried out with phospho-specific antibodies to assess activation state of the kinases, and with native antibodies to assess changes in protein levels. Similar results were obtained with the H1703 (FIG. 3A) or H157 cells (FIG. 3B). […] Upstream of Akt, phosphorylation of PDK-1 was not affected by any SH compound. Of the downstream substrates, c-Raf phosphorylation and 4EBP-1 phosphorylation were decreased most. Decreased c-Raf phosphorylation correlated with increased ERK and p38 phosphorylation, which is consistent with the inhibitory effect of S259 phosphorylation by Akt on c-Raf activity.

Akt = experiment: Immunoblotting with antibodies against Akt phosphorylated at S473 and native Akt after administration of compounds to cancer cell lines; conditions: for native Akt levels (immunoblot) / Akt phosphorylation at S473 (immunoblot): FIG. 1D; for decreasing Akt phosphorylation: panel of cancer cell lines (summary)
Experimental: The SH compounds were tested against Akt and other kinases that are either upstream of Akt (PDK-1), downstream of Akt (c-Raf, 4EBP-1, p70S6K, FKHR, GSK-3, and/or AFX), or downstream of Ras (ERK, p38). Immunoblotting was carried out with phospho-specific antibodies to assess activation state of the kinases, and with native antibodies to assess changes in protein levels.

tuberin = experiment: Phosphorylation of tuberin
Excerpt: SH5, 6, 23, 24, and 25 are very active in decreasing Akt phosphorylation in a panel of cancer cell lines. These compounds decrease Akt phosphorylation as well as Akt kinase activity, with IC50s in the low micromolar range. These compounds appear to be specific for Akt, as the phosphorylation of the upstream kinase, PDK-1, is unaffected by any of the SH compounds, as is […]. Cell-line specific, selective inhibition of phosphorylation of substrates downstream of Akt, such as c-Raf, 4EBP-1, GSK-3, and/or FKHR/AFX was observed. […] Phosphorylation of tuberin, 4EBP-1 and P70S6K (substrates that control protein translation) was inhibited by SH23, 24, and 25; and SH5-6 inhibited phosphorylation of tuberin and 4EBP-1. Phosphorylation of forkhead family members AFX and FKHR that control transcription was inhibited by SH23 or 25. Phosphorylation of GSK-3 and c-Raf was attenuated by SH23-25.

4EBP-1 = experiment: Immunoblotting with phospho-specific antibodies: 4EBP-1 phosphorylation; conditions: summary, cell line not specified
Experimental: as §2

p70S6K = experiment: Immunoblotting with phospho-specific antibodies: p70S6K phosphorylation
Experimental: as §2

FKHR = experiment: Immunoblotting with phospho-specific antibodies: FKHR phosphorylation
Experimental: as §2

AFX = experiment: Immunoblotting with phospho-specific antibodies: AFX phosphorylation
Experimental: as §2

H1355 and A549 cells = experiment: Apoptosis in cells with low endogenous Akt levels
Experimental: as §1

MB468 cells = experiment: Apoptosis in MB468 cells; conditions: MB468 cells (data not shown)
Experimental: as §1

[2] = H1703 (FIG. 3A) or H157 cells (FIG. 3B)

Structure (SMILES)	increase of apoptosis [1]	p38 phosphorylation (p38)	Akt phosphorylation (Akt; [2])	native Akt levels (Akt; [2])	native Akt levels (immunoblot) (Akt)	Akt phosphorylation at S473 (immunoblot) (Akt; H1703 cells (wild type PTEN))	Akt phosphorylation (Akt; all three cell lines, FIG. 1F)	decreasing Akt phosphorylation (Akt)	phosphorylation of tuberin (tuberin)	phosphorylation of 4EBP-1 (4EBP-1)	phosphorylation of P70S6K (p70S6K)	phosphorylation of FKHR (FKHR)	phosphorylation of AFX (AFX)	Akt phosphorylation at S473 (immunoblot) (Akt; H157 cells (mutant PTEN))	Akt phosphorylation at S473 (immunoblot) (Akt; cell line not specified (H1703, H157))	apoptosis (H1355 and A549 cells)	apoptosis (MB468 cells)
CCCCCCCCCCCCCCCCCCOCC(COP(=O)(O)OC1C(O)CC(O)C(O)C1O)OC (centres unmarked) [DPIEL]	no effect	decreased															
CCCCCCCCCCCCCCCCCCOC[C@H](COP(=O)(O)O[C@@H]1[C@H](O)[C@H](O)C[C@H](O)[C@H]1O)OC [SH10]			inhibited	without affecting													
CCCCCCCCCCCCCCCCCCOCC(COP(=O)(O)OC1C(OCC2CCCCC2)CC(O)C(O)C1O)OC (centres unmarked) [SH24]					without affecting	decreased	completely inhibited	very active	inhibited	inhibited	inhibited						
CCCCCCCCCCCCCCCCCCOCC(COP(=O)(O)OC1C(O)CCC(O)C1O)OC (centres unmarked) [SH25]					without affecting	decreased	completely inhibited	very active	inhibited	inhibited	inhibited	inhibited	inhibited				
CCCCCCCCCCCCCCCCCCOC[C@H](COP(=O)(O)O[C@H]1[C@H](O)C[C@H](O)C[C@H]1O)OC [SH16]					without affecting	decreased								All but SH16			
CCCCCCCCCCCCCCCCCCOC[C@H](CO)OC [SH7, reference compound]	no effect		did not decrease												lack of decreased phosphorylation	did not undergo apoptosis	
CCCCCCCCCCCCCCCCCCOC[C@H](COP(=O)(O)O[C@@H]1CC[C@@H](O)[C@H](O)[C@H]1O)OC [SH6]			inhibited	without affecting	without affecting	decreased	completely inhibited	very active	inhibited	inhibited						did not undergo apoptosis	Increased apoptosis
CCCCCCCCCCCCCCCCCCOCC(COP(=O)(O)OC1C(OCC(C)C)CC(O)C(O)C1O)OC (centres unmarked) [SH23]					without affecting	decreased	completely inhibited	very active	inhibited	inhibited	inhibited	inhibited	inhibited				
CCCCCCCCCCCCCCCCCCOC[C@H](COP(=O)(O)O[C@H]1[C@H](O)[C@@H](O)[C@H](O)C[C@H]1OC)OC [SH5]			inhibited	without affecting	without affecting	decreased	completely inhibited	very active	inhibited	inhibited						did not undergo apoptosis	Increased apoptosis
